Columns and labels:
[1] = system: HL-60, human proleukemia cells; assay: Cell-MTS cellular proliferation assay, HL-60; format: cell-based; conditions: Homo sapiens, HL-60 cells, 168 hr incubation
Summary of the method: (§1)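 Cells seeded to reach ~90% confluence at 7 days (Raji 15,000, HL-60 5,000, NCI-H460 3,000 per well); 11-point compound dilution, 100 µM to 2.0 nM final, added 24 h after plating. Exposure 168 hr at 37 °C, 5% CO2; MTS read at OD490. IC50 from background-subtracted OD490 normalized to DMSO controls.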

[2] = system: NCI-H460, human non-small cell lung cancer cells; assay: Cell-MTS cellular proliferation assay, NCI-H460; format: cell-based; conditions: Homo sapiens, 168 hr incubation
Summary of the method: as §1

[3] = system: Raji, human Burkitts lymphoma cells; assay: Cell-MTS cellular proliferation assay, Raji; format: cell-based; conditions: Homo sapiens, 168 hr incubation
Summary of the method: as §1

BRD4(BD1) = BRD4(BD1) (Homo sapiens (Human), UniProt O60885); assay: In vitro enzyme inhibition assay (BRD4 AlphaScreen, H4-tetraacetyl peptide); format: binding; conditions: BRD4(BD1) 2 nM, peptide 15 nM
Summary of the method: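 His-tagged BRD4(BD1), 2 nM, with 15 nM biotinylated H4K5/8/12/16(Ac) peptide in HEPES pH 7.3 buffer, 0.4% DMSO, 20 min RT with compound. Streptavidin donor and Ni-chelate acceptor beads (5 μg/mL) then equilibrated 2 h. AlphaScreen signal; IC50 by four-parameter fit.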

Row | SMILES | IC50 [1] [nM] | IC50 [2] [nM] | IC50 [3] [nM] | IC50 (BRD4(BD1)) [nM]
1 | CCS(=O)(=O)Nc1cc(-c2cc(C)c(=O)n(C)c2)cc2c1cnn2Cc1ccccc1 [Example 42, N-[1-benzyl-6-(1,5-dimethyl-6-oxopyridin-3-yl)indazol-4-yl]ethanesulfonamide] | ≤ 500 | 500 to 5000 | ≤ 500 | ≤ 500
2 | CCS(=O)(=O)Nc1cc(-c2cc(C)c(=O)n(C)c2)cc2c1cnn2Cc1ccc(F)cc1 [Example 43, N-[6-(1,5-dimethyl-6-oxopyridin-3-yl)-1-[(4-fluorophenyl)methyl]indazol-4-yl]ethanesulfonamide] | ≤ 500 | ≤ 500 | ≤ 500 | ≤ 500
3 | Cc1cc(-c2cc(NS(C)(=O)=O)c3nc(C)n([C@@H](C)c4ccccc4)c3c2)cn(C)c1=O [Example 44, N-[6-(1,5-dimethyl-6-oxopyridin-3-yl)-2-methyl-1-[(1S)-(1-phenylethyl)]benzimidazol-4-yl]methanesulfonamide] | ≤ 500 | 500 to 5000 | ≤ 500 | ≤ 500
4 | COC[C@@H](C)n1c(C)nc2c(NS(C)(=O)=O)cc(-c3cc(C)c(=O)n(C)c3)cc21 [Example 46, N-[6-(1,5-dimethyl-6-oxopyridin-3-yl)-1-[(2R)-1-methoxypropan-2-yl]-2-methylbenzimidazol-4-yl]methanesulfonamide] | ≤ 500 | > 5000 | ≤ 500 | ≤ 500
5 | CCS(=O)(=O)Nc1cc(-c2cc(C)c(=O)n(C)c2)c2oc(C3CC3)nc2c1 [Example 47, N-[2-cyclopropyl-7-(1,5-dimethyl-6-oxopyridin-3-yl)-1,3-benzoxazol-5-yl]ethanesulfonamide] | ≤ 500 | > 5000 | ≤ 500 | ≤ 500
6 | CCS(=O)(=O)Nc1cc(-c2cn(C)c(=O)c3ccccc23)c2oc(C3CC3)nc2c1 [Example 48, N-[2-cyclopropyl-7-(2-methyl-1-oxoisoquinolin-4-yl)-1,3-benzoxazol-5-yl]ethanesulfonamide] | ≤ 500 | ≤ 500 | ≤ 500 | ≤ 500
7 | CCS(=O)(=O)N1CCOc2cc(OCC3CC3)c(-c3cn(C)c(=O)c4ccccc34)cc21 [Example 49, 4-[7-(cyclopropylmethoxy)-4-ethylsulfonyl-2,3-dihydro-1,4-benzoxazin-6-yl]-2-methylisoquinolin-1-one] | ≤ 500 | 500 to 5000 | ≤ 500 | ≤ 500
8 | CCS(=O)(=O)N1CCOc2cc(OCC3CC3)c(-c3cc(C)c(=O)n(C)c3)cc21 [Example 50, 5-[7-(cyclopropylmethoxy)-4-ethylsulfonyl-2,3-dihydro-1,4-benzoxazin-6-yl]-1,3-dimethylpyridin-2-one] | ≤ 500 | > 5000 | ≤ 500 | ≤ 500
9 | Cc1cc(-c2cc(NS(=O)(=O)C(C)C)cc3nc(C4CC4)oc23)cn(C)c1=O [Example 51, N-[2-cyclopropyl-7-(1,5-dimethyl-6-oxopyridin-3-yl)-1,3-benzoxazol-5-yl]propane-2-sulfonamide] | ≤ 500 | > 5000 | 500 to 5000 | ≤ 500
10 | CCS(=O)(=O)Nc1cc(-c2cc(C)c(=O)n(C)c2)c2oc(C3CCCC3)nc2c1 [Example 52, N-[2-cyclopentyl-7-(1,5-dimethyl-6-oxopyridin-3-yl)-1,3-benzoxazol-5-yl]ethanesulfonamide] | ≤ 500 | > 5000 | ≤ 500 | ≤ 500
11 | CCS(=O)(=O)Nc1cc(-c2cn(C)c(=O)c3ccccc23)c2oc(C3CCCC3)nc2c1 [Example 53, N-[2-cyclopentyl-7-(2-methyl-1-oxoisoquinolin-4-yl)-1,3-benzoxazol-5-yl]ethanesulfonamide] | ≤ 500 | > 5000 | ≤ 500 | ≤ 500
12 | Cc1cc(-c2cc(CS(C)(=O)=O)cc3nc(C4CC4)oc23)cn(C)c1=O [Example 56, 5-[2-cyclopropyl-5-(methylsulfonylmethyl)-1,3-benzoxazol-7-yl]-1,3-dimethylpyridin-2-one] | ≤ 500 | > 5000 | 500 to 5000 | ≤ 500
13 | CCS(=O)(=O)Nc1cc(-c2cc(OC)c(=O)n(C)c2)c2oc(C3CCCC3)nc2c1 [Example 57, N-[2-cyclopentyl-7-(5-methoxy-1-methyl-6-oxopyridin-3-yl)-1,3-benzoxazol-5-yl]ethanesulfonamide] | ≤ 500 | > 5000 | ≤ 500 | ≤ 500
14 | Cc1cc(-c2cc3c(S(C)(=O)=O)nn(C)c3cc2OCC2CC2)cn(C)c1=O [Example 58, 5-[6-(cyclopropylmethoxy)-1-methyl-3-methylsulfonylindazol-5-yl]-1,3-dimethylpyridin-2-one] | ≤ 500 | > 5000 | ≤ 500 | ≤ 500
15 | COc1cc(-c2cc3c(S(C)(=O)=O)nn(C)c3cc2OCC2CC2)cn(C)c1=O [Example 59, 5-[6-(cyclopropylmethoxy)-1-methyl-3-methylsulfonylindazol-5-yl]-3-methoxy-1-methylpyridin-2-one] | ≤ 500 | > 5000 | ≤ 500 | ≤ 500
16 | Cc1cc(-c2cc3c(nc(C)n3Cc3ccc(F)cc3)c(NS(C)(=O)=O)n2)cn(C)c1=O [Example 60, N-[6-(1,5-dimethyl-6-oxopyridin-3-yl)-1-[(4-fluorophenyl)methyl]-2-methylimidazo[4,5-c]pyridin-4-yl]methanesulfonamide] | ≤ 500 | > 5000 | ≤ 500 | ≤ 500
17 | Cc1cc(-c2cc3c(nc(C)n3Cc3ccccc3)c(NS(C)(=O)=O)n2)cn(C)c1=O [Example 61, N-[1-benzyl-6-(1,5-dimethyl-6-oxopyridin-3-yl)-2-methylimidazo[4,5-c]pyridine-4-yl]methanesulfonamide] | ≤ 500 | > 5000 | ≤ 500 | ≤ 500
18 | Cc1cc(-c2cc3c(nc(C)n3Cc3ccc(F)cc3F)c(NS(C)(=O)=O)n2)cn(C)c1=O [Example 62, N-[1-[(2,4-difluorophenyl)methyl]-6-(1,5-dimethyl-6-oxopyridin-3-yl)-2-methylimidazo[4,5-c]pyridin-4-yl]methanesulfonamide] | ≤ 500 | > 5000 | ≤ 500 | ≤ 500
19 | Cc1cc(-c2cc(NS(C)(=O)=O)c3c(F)nn(Cc4ccc(F)cc4)c3c2)cn(C)c1=O [Example 64, N-[6-(1,5-dimethyl-6-oxopyridin-3-yl)-3-fluoro-1-[(4-fluorophenyl)methyl]indazol-4-yl]methanesulfonamide] | ≤ 500 | > 5000 | ≤ 500 | ≤ 500
20 | COc1cc(-c2cc(NS(C)(=O)=O)c3c(F)nn(Cc4ccc(F)cc4)c3c2)cn(C)c1=O [Example 65, N-[3-fluoro-1-[(4-fluorophenyl)methyl]-6-(5-methoxy-1-methyl-6-oxopyridin-3-yl)indazol-4-yl]methanesulfonamide] | ≤ 500 | > 5000 | ≤ 500 | ≤ 500

— US10807982B2, “Bromodomain inhibitors” (CELGENE QUANTICEL RESEARCH, INC., priority 2015, dated 2020)
